Source: patent US6432426B1, “Non-staining topical iodine composition and method” (Symbollon Corporation, priority 1998, dated 2002)

Experiments:
Human Skin = assay: Coloration of human skin by a 30 second exposure (vial contact on forearm); hue by Pantone chips, intensity against Brown No. 3 dye; assay type: in vivo
Description: 1. […] Elemental iodine was weighed on an analytical balance and dissolved in one liter of water that had been acidified with 2 drops of 0.1N hydrochloric acid. The concentration of molecular iodine in the water was confirmed by potentiometric analysis (Gottardi, W., 1983. Fresenius Z. Anal. Chem., Vol. 314, pages 582-585). Samples were also titrated with thiosulfate to determine that at least 95% of the theoretical yield of titratable iodine was in the form of molecular iodine as opposed to triiodide. The concentration of molecular iodine was varied from 25 ppm to 330 ppm.
One dram vials (Kimble catalog #60931) were used to deliver 4 mL of the room temperature iodine solutions samples. The vials were placed on the forearm of a subject and then the forearm was inverted to initiate contact of the sample with the iodine solution. The contact area was a circle with a diameter of 1.3 cm. The samples were held on the arm for 30 seconds at room temperature. Three different subjects were used for this experiment. Immediately after the 30 second contact time the arms of the subjects were examined for stains; 10 minutes after the end of the contact time all subjects arms were examined for stains again..
For the purposes of this application, two different parameters were used to characterize the color and intensity of the term stain. The hue of the color imparted to skin was characterized by using the Pantone Color Matching System (Pantone Color Specifier, Pantone Inc., Carlstadt, N.J.) which allows comparison with 1,012 defined colors on two types of paper. Stains from triiodide were matched to the Pantone color chip No. 152C. Short-lived coloration from molecular iodine were matched to the Pantone color chip 1375C.
The intensity of any coloration on skin was characterized by applying an aqueous solution of known concentrations of a food dye, Brown No. 3 (Crompton & Knowles, Mahwah, N.J. —Code DP935159), for 10 seconds using the method described above for application of iodine. Brown No. 3 was applied to the skin at concentrations that ranged from 500 ppm to 30 ppm and the intensity of the color from Brown No. 3 was compared to the intensity of coloration from iodine compositions. For instance, the intensity of color 10 minutes after a 30 second contact with a 600 ppm aqueous triiodide solution was equivalent to the color from a 10 second exposure to a 250 ppm Brown No. 3 solution. In contrast, the intensity of color 10 minutes after a 30 second contact with a 300 ppm aqueous molecular iodine solution was equivalent to the color from a ten second exposure to a 30 ppm Brown No. 3 solution which is barely discernible.

epidermis = assay: Staining of epidermis by triiodide solutions, 10 second contact on forearm; assay type: in vivo, human
Procedure: 3. […] Solutions of triiodide were prepared by dissolving elemental iodine into oxygen-free solutions of sodium iodide that were at a pH of 4.5. A molar excess of iodide was used. Based on thiosulfate titrations, potentiometric measurements of iodine and ion selective electrode measurements of iodide ion, essentially all of the elemental iodine was converted into triiodide. Solutions of triiodide were made that varied from 100 to 25,000 ppm. Four mL of each sample was transferred to a 1.0 dram vial (Kimble catalog #60931) at room temperature and placed on the forearm of a subject and then the forearm was inverted to initiate contact of the sample with the triiodide solution. The samples were held on the arm for 10 seconds.
The contact areas were checked for stains at 10 minutes and 3 hours after exposure.

Staphylococcus aureus = assay: Residual biocidal effect of skin associated iodine, colony counts from inoculated treated skin; assay type: in vivo; conditions: solution with 700 ppm of triiodide, but no molecular iodine
Procedure: 5. […] […] […] […] The samples were contacted with the arm for 30 seconds. After contact the treated arm was flushed with water for 15 seconds and dried.
[…] Two hours after contact each area was inoculated with […] of a 1:100 dilution of a 48 hour soy-trypticase culture of Staphylococcus aureus. Ninety minutes after inoculation the mouths of sterile 25 mL flasks filled with 2 mL of soy-trypticase with 2% Tween 80 were placed over the marked skin areas. The flasks were gently shaken for 1 minute and a colony count was performed on blood agar plates after incubation at 37° C. for 48 hours. The residual biocidal effect from skin associated molecular iodine was determined by subtracting the log of the colony counts from the areas of skin that were contacted with iodine from the controls (log colony count from untreated skin). The average difference in colony counts between treated and untreated skin was 2.4 logs.

Question: What does the source list for `I[IH]I` [triiodide, reference compound]?
Answer: Intensity of color on skin, equivalent Brown No. 3 solution (10 second exposure) (Human Skin; 10 minutes after a 30 second contact with a 600 ppm aqueous triiodide solution): 250 ppm; Hue of the color imparted to skin, matched Pantone color chip (Human Skin; Pantone Color Matching System): 152C; Staining at three hours (epidermis; 100 ppm triiodide): staining was present at three hours but it was not visibly noticeable; Degree of color (epidermis; 700 ppm triiodide, 3 hours after contact): minimally discernable; Coloration of the epidermis 3 hours after contact (epidermis; triiodide at concentrations from 25,000 to 700 ppm): A definite coloration of the epidermis was evident; Reduction in the concentration of pathogens (Staphylococcus aureus): no measurable reduction
